Data reported in ChEMBL document CHEMBL1157236, “A reassignment of (-)-mycothiazole and the isolation of a related diol” (2006).

Key:
[1] = Growth inhibition of human OVACR3 cells; format: functional
[2] = Growth inhibition of human OVACR4 cells; format: functional
[3] = Growth inhibition of human OVACR5 cells; format: functional; details: OVACR5, read-out: pGI50 (converted)
[4] = Growth inhibition of human OVACR8 cells; format: functional
SK-OV-3 = assay: Growth inhibition of human SK-OV-3 cells; format: functional
786-0 = assay: Growth inhibition of human 786-0 cells; format: functional; details: 786-0, read-out: pGI50 (converted)
A498 = assay: Growth inhibition of human A498 cells; format: functional
ACHN = assay: Growth inhibition of human ACHN cells; format: functional
CAKI-1 = assay: Growth inhibition of human CAKI1 cells; format: functional
[5] = Growth inhibition of human RXF631 cells; format: functional; details: RXF 631, read-out: pGI50 (converted)
RXF 393 = assay: Growth inhibition of human […] cells; format: functional
SN12C = assay: Growth inhibition of human SN12C cells; format: functional; details: read-out: pGI50 (converted)
TK-10 = assay: Growth inhibition of human TK10 cells; format: functional; details: TK-10, read-out: pGI50 (converted)
UO-31 = assay: Growth inhibition of human UO31 cells; format: functional
PC-3 = assay: Growth inhibition of human PC3 cells; format: functional; details: PC-3, read-out: pGI50 (converted)
DU-145 = assay: Growth inhibition of human DU145 cells; format: functional; details: DU-145, read-out: pGI50 (converted)
MCF7 = assay: Growth inhibition of human MCF7 cells; format: functional; details: MCF7, read-out: pGI50 (converted)
NCI/ADR-RES = assay: Growth inhibition of human NCI/ADR-RES cells; format: functional
Hs-578T = assay: Growth inhibition of human HS578T cells; format: functional; details: read-out: pGI50 (converted)
MDA-MB-435 = assay: Growth inhibition of human MDA-MB-435 cells; format: functional
BT-549 = assay: Growth inhibition of human BT549 cells; format: functional
T47D = assay: Growth inhibition of human T47D cells; format: functional; details: read-out: pGI50 (converted)
XF498 = assay: Growth inhibition of human XF498 cells; format: functional
MDA-N = assay: Growth inhibition of human MDA-N cells; format: functional
L1210 = assay: Selectivity for mouse C38 cells over mouse L1210 cells; format: functional
IGROV-1 = assay: Growth inhibition of human IGROV1 cells; format: functional
HCT-15 = assay: Growth inhibition of human HCT15 cells; format: functional
HT-29 = assay: Growth inhibition of human HT29 cells; format: functional
KM12 = assay: Growth inhibition of human KM12 cells; format: functional
KM-20L2 = assay: Growth inhibition of human KM20L2 cells; format: functional
SW-620 = assay: Growth inhibition of human SW620 cells; format: functional
SF-268 = assay: Growth inhibition of human SF268 cells; format: functional
SF-295 = assay: Growth inhibition of human SF295 cells; format: functional
SF-539 = assay: Growth inhibition of human SF539 cells; format: functional; details: SF-539, read-out: pGI50 (converted)
SNB-19 = assay: Growth inhibition of human SNB19 cells; format: functional; details: SNB-19, read-out: pGI50 (converted)
SNB-75 = assay: Growth inhibition of human SNB75 cells; format: functional
U-251 = assay: Growth inhibition of human U251 cells; format: functional
LOX IMVI = assay: Growth inhibition of human LOX IMVI cells; format: functional
Malme-3M = assay: Growth inhibition of human MALME3M cells; format: functional; details: read-out: pGI50 (converted)
M14 = assay: Growth inhibition of human M14 cells; format: functional
M19-MEL = assay: Growth inhibition of human M19-MEL cells; format: functional
SK-MEL-2 = assay: Growth inhibition of human SK-MEL-2 cells; format: functional; details: SK-MEL-2, read-out: pGI50 (converted)
SK-MEL-28 = assay: Growth inhibition of human SK-MEL-28 cells; format: functional
SK-MEL-5 = assay: Growth inhibition of human SK-MEL-5 cells; format: functional
UACC-257 = assay: Growth inhibition of human UACC257 cells; format: functional
UACC-62 = assay: Growth inhibition of human UACC62 cells; format: functional
[6] = Growth inhibition of human HL60(TB) cells; format: functional, HL-60(TB); details: HL-60
CCRF-CEM = assay: Growth inhibition of human CCRF-CEM cells; format: functional
K562 = assay: Growth inhibition of human K562 cells; format: functional
MOLT-4 = assay: Growth inhibition of human MOLT4 cells; format: functional
[7] = Growth inhibition of human […] cells; format: functional
SR = assay: Growth inhibition of human SR cells; format: functional
A549 = assay: Growth inhibition of human A549 cells; format: functional
EKVX = assay: Growth inhibition of human EKVX cells; format: functional
HOP-62 = assay: Growth inhibition of human HOP62 cells; format: functional; details: HOP-62, read-out: pGI50 (converted)
HOP-92 = assay: Growth inhibition of human HOP92 cells; format: functional
NCI-H226 = assay: Growth inhibition of human NCI-H226 cells; format: functional; details: NCI-H226, read-out: pGI50 (converted)
NCI-H23 = assay: Growth inhibition of human NCI-H23 cells; format: functional
NCI-H322M = assay: Growth inhibition of human NCI-H322M cells; format: functional
NCI-H460 = assay: Growth inhibition of human NCI-H460 cells; format: functional
NCI-H522 = assay: Growth inhibition of human NCI-H522 cells; format: functional
[8] = Growth inhibition of human LXFL529 cells; format: functional; details: LXFL 529
DMS-114 = assay: Growth inhibition of human DMS114 cells; format: functional
DMS-273 = assay: Growth inhibition of human DMS273 cells; format: functional
COLO 205 = assay: Growth inhibition of human COLO205 cells; format: functional
DLD-1 = assay: Growth inhibition of human DLD1 cells; format: functional
HCC 2998 = assay: Growth inhibition of human HCC2998 cells; format: functional; details: HCC 2998, read-out: pGI50 (converted)
HCT-116 = assay: Growth inhibition of human HCT116 cells; format: functional

Question: Which results are given for `C=CC/C=C\Cc1csc(C(C)(C)[C@H](O)C/C=C\C(=C)CCNC(=O)OC)n1` [MYCOTHIAZOLE]?
Answer: GI50 [1]: 25.1 µM; GI50 [2]: 63.1 µM; GI50 [3]: > 100 µM; GI50 [4]: 79.4 µM; GI50 (SK-OV-3): 79.4 µM; GI50 (786-0): > 100 µM; GI50 (A498): 63.1 µM; GI50 (ACHN): 50.1 µM; GI50 (CAKI-1): 63.1 µM; GI50 [5]: > 100 µM; GI50 (RXF 393): 63.1 µM; GI50 (SN12C): > 100 µM; GI50 (TK-10): > 100 µM; GI50 (UO-31): 79.4 µM; GI50 (PC-3): > 100 µM; GI50 (DU-145): > 100 µM; GI50 (MCF7): > 100 µM; GI50 (NCI/ADR-RES): 79.4 µM; GI50 (Hs-578T): > 100 µM; GI50 (MDA-MB-435): 50.1 µM; GI50 (BT-549): 3.16 µM; GI50 (T47D): > 100 µM; GI50 (XF498): 50.1 µM; GI50 (MDA-N): 50.1 µM; Selectivity Index (L1210): 3; GI50 (IGROV-1): 31.6 µM; GI50 (HCT-15): 39.8 µM; GI50 (HT-29): 50.1 µM; GI50 (KM12): 63.1 µM; GI50 (KM-20L2): 50.1 µM; GI50 (SW-620): 25.1 µM; GI50 (SF-268): 79.4 µM; GI50 (SF-295): 1.26 µM; GI50 (SF-539): > 100 µM; GI50 (SNB-19): > 100 µM; GI50 (SNB-75): 39.8 µM; GI50 (U-251): 79.4 µM; GI50 (LOX IMVI): 39.8 µM; GI50 (Malme-3M): > 100 µM; GI50 (M14): 39.8 µM; GI50 (M19-MEL): 25.1 µM; GI50 (SK-MEL-2): > 100 µM; GI50 (SK-MEL-28): 79.4 µM; GI50 (SK-MEL-5): 1.26 µM; GI50 (UACC-257): 1.58 µM; GI50 (UACC-62): 39.8 µM; GI50 [6]: 10 µM; GI50 (CCRF-CEM): 31.6 µM; GI50 (K562): 0.794 µM; GI50 (MOLT-4): 39.8 µM; GI50 [7]: 31.6 µM; GI50 (SR): 0.501 µM; GI50 (A549): 39.8 µM; GI50 (EKVX): 25.1 µM; GI50 (HOP-62): > 100 µM; GI50 (HOP-92): 20 µM; GI50 (NCI-H226): > 100 µM; GI50 (NCI-H23): 0.251 µM; GI50 (NCI-H322M): 15.8 µM; GI50 (NCI-H460): 31.6 µM; GI50 (NCI-H522): 20 µM; GI50 [8]: 20 µM; GI50 (DMS-114): 0.0126 µM; GI50 (DMS-273): 3.16 µM; GI50 (COLO 205): 63.1 µM; GI50 (DLD-1): 79.4 µM; GI50 (HCC 2998): > 100 µM; GI50 (HCT-116): 0.631 µM
